Read-outs that look alike come from different tables or passages of the source. Each block holds one compound with its values, some of them ahead of it.
Columns and labels:
[1] = tested on: Staphylococcus aureus or Streptococcus species; assay: Murine Assay: in vivo antimicrobial activity, survival of mice infected intraperitoneally with bacteria
Procedure: Antimicrobial activity was tested in vivo using the Murine Assay procedure. Groups of female mice (six mice of 18-20 grams each) were injected intraperitoneally with bacteria which were thawed just prior to use and suspended in brain heart infusion with 4% brewers yeast (Staphylococcus aureus) or brain heart infusion (Streptococcus species). Antibiotic treatment at six dose levels per drug was administered one hour and five hours after infection by either oral intubation or subcutaneous routes. Survival was observed daily for six days. ED50 values based on mortality ratios were calculated using probit analysis. The subject compounds are compared against well-known antimicrobials vancomycin and U-100592 as controls. See “Upjohn Oxazolidinone Antibacterial Agent”, posters presented at the 35th Interscience Conference on Antimicrobial Agents and Chemotherapy.

[2] = Table 2, female mice, treatment 1 h and 5 h after infection, oral intubation or subcutaneous, survival over six days, probit analysis of mortality ratios
[3] = Table 2, female mice, treatment 1 h and 5 h after infection, oral intubation or subcutaneous, survival over six days, probit analysis of mortality ratios, read-out: ED50

Compound: CC(=O)NC[C@H]1CN(c2ccc(C3=CCS(=O)(=O)CC3)cc2)C(=O)O1 [Example 55, (S)-(−)-N-[[3-[4-(3,6-Dihydro-2H-thiopyran-4-yl)phenyl]-2-oxo-5-oxazolidinyl]methyl]acetamide S,S-dioxide]
ED50 [1, 2]: 2.30 mg/kg

Compound: CC(=O)NC[C@H]1CN(c2ccc(C3=CCN(C=O)CC3)c(F)c2)C(=O)O1 [Example 56]
ED50 [1, 2]: 4.40 mg/kg

Compound: COC(=O)N1CC=C(c2ccc(N3C[C@H](CNC(C)=O)OC3=O)cc2F)CC1 [Example 57, (S)-(−)-4-[4-[5-[(Acetylamino)methyl]-2-oxo-3-oxazolidinyl]-2-fluorophenyl]-3,6-dihydro-1(2H)-pyridinecarboxylic acid methyl ester]
ED50 [1]: 6.2 mg/kg

Compound: CC(=O)NC[C@H]1CN(c2ccc(C3=CCN(C(=O)COC(C)=O)CC3)cc2)C(=O)O1 [Example 59, (S)-(−)-N-[[2-Oxo-3-[4-[1-[(acetoxy)acetyl]-3,6-dihydro-2H-pyridin-4-yl]phenyl]-5-oxazolidinyl]methyl]acetamide]
ED50 [1, 3]: 4.2 mg/kg

Compound: CC(=O)NC[C@H]1CN(c2ccc(C3=CCN(C(=O)CO)CC3)cc2)C(=O)O1 [Example 60, (S)-(−)-N-[[3-[4-[1-(Hydroxyacetyl)-3,6-dihydro-2H-pyridin-4-yl]phenyl]-2-oxo-5-oxazolidinyl]methyl]acetamide]
ED50 [1, 3]: 3.1 mg/kg

Compound: CC(=O)NC[C@H]1CN(c2ccc(C3=CCN(C=O)CC3)cc2)C(=O)O1 [Example 61, (S)-(−)-N-[[3-[4-[1-(Formyl)-3,6-dihydro-2H-pyridin-4-yl]phenyl]-2-oxo-5-oxazolidinyl]methyl]acetamide]
ED50 [1, 3]: 6.1 mg/kg

Compound: COC(=O)N1CC=C(c2ccc(N3C[C@H](CNC(C)=O)OC3=O)cc2)CC1 [Example 62, (S)-(−)-4-[4-[5-[(Acetylamino)methyl]-2-oxo-3-oxazolidinyl]phenyl]-3,6-dihydro-1(2H)-pyridinecarboxylic acid methyl ester]
ED50 [1]: 12 mg/kg

Compound: CC(=O)NC[C@H]1CN(c2ccc(C3=CC[S+]([O-])CC3)c(F)c2)C(=O)O1 (stereo partly drawn) [Example 63, (S)-(−)-N-[[3-[4-(3,6-Dihydro-2H-thiopyran-4-yl)-3-fluoropheny]-2-oxo-5-oxazolidinyl]methyl]acetamide S-oxide]
ED50 [1, 2]: 4.90 mg/kg

Compound: CC(=O)NC[C@H]1CN(c2ccc(C3=CC[S+]([O-])CC3)cc2)C(=O)O1 (stereo partly drawn) [Example 64, (S)-(−)-N-[[3-[4-(3 6-Dihydro-2H-thiopyran-4-yl)phenyl]-2-oxo-5-oxazolidinyl]methyl]acetamide S-oxide]
ED50 [1, 2]: 4.60 mg/kg

Compound: CC(=O)NC[C@H]1CN(c2ccc(C3=CCCN(C(=O)CO)C3)c(F)c2)C(=O)O1 [Example 71, (S)-N-[[3-[4-[1-(Hydroxyacetyl)-5,6-dihydro-2H-pyridin-3yl]-3-fluoropheny]-2-oxo-5-oxazolidinyl]methyl]acetamide]
ED50 [1, 2]: 13.4 mg/kg

Compound: CC(=O)NC[C@H]1CN(c2ccc(C3(F)CCN(C=O)CC3)c(F)c2)C(=O)O1 [Example 74, (S)-(−)-N-[[3-[4-[1-Formyl-4-fluoro-4-piperidinyl]-3-fluorophenyl]-2-oxo-5-oxazolidinyl]methyl]acetamide]
ED50 [1, 3]: 10.3 mg/kg

Compound: CC(=O)NC[C@H]1CN(c2ccc(C3=CCN(C(=O)CO)CCC3)c(F)c2)C(=O)O1 [Example 76, (S)-(−)-N-[[3-[4-[1-(Hydroxyacetyl)-2,3,4,7-tetrahydro-1H-azepin-5-yl]-3-fluorophenyl]-2-oxo-5-oxazolidinyl]methyl]acetamide]
ED50 [1, 3]: > 20 mg/kg

Compound: CC(=O)NC[C@H]1CN(c2ccc(C3=CCCN(C(=O)CO)CC3)c(F)c2)C(=O)O1 [Example 78, (S)-(−)-N-[[3-[4-[1-(Hydroxyacetyl)-2,3,6,7-tetrahydro-1H-azepin-4-yl]-3-fluorophenyl]-2-oxo-5-oxazolidinyl]methyl]acetamide]
ED50 [1, 3]: 6 mg/kg

melting point: 161 to 163 °C
Compound: CC(=O)NC[C@H]1CN(c2ccc(C3=CCCCO3)c(F)c2)C(=O)O1 [Example 80, (S)-N-[[3-[3-Fluoro-4-(3,4-dihydro-2H-pyran-6-yl)phenyl]-2-oxo-5-oxazolidinyl]methyl]acetamide]

Compound: COC(=O)N1CC(c2ccc(N3C[C@H](CNC(C)=O)OC3=O)cc2F)C1 [Example 83, (S)-N-[[3-[3-Fluoro-4-[1-(methoxycarbonyl)-3-azetidinyl]phenyl]-2-oxo-5-oxazolidinyl]methyl]acetamide]
ED50 [1]: 7.5 mg/kg

Compound: CC(=O)NC[C@H]1CN(c2ccc(C3CN(C=O)C3)c(F)c2)C(=O)O1 [Example 84, (S)-N-[[3-[3-Fluoro-4-[1-(formyl)-3-azetidinyl]phenyl]-2-oxo-5-oxazolidinyl]methyl]acetamide]
ED50 [1, 3]: 6.5 mg/kg

Compound: (5S)-N-[[3-[3-Fluoro-4-[1-(formyl)-3-pyrrolidinyl]phenyl]-2-oxo-5-oxazolidinyl]methyl] [Example 45]
ED50 [1, 2]: 2.80 mg/kg

Compound: (S)-(−)-N-[[3-[3-Fluoro-4-(dihydrothien-3-yl)-phenyl]-2-oxo-5-oxazolidinyl]methyl]acetamide [Example 67]
ED50 [1, 2]: 13.3 mg/kg
